US20260356819A1, “OXOISOINDOLINYL-SUBSTITUTED […] DERIVATIVE AND USE THEREOF” (GLUETACS THERAPEUTICS (SHANGHAI) CO., LTD., priority 2023, published 2026)

Legend:
Type in all cases: cell-based
Conditions in all cases: compounds at 50 nM and 500 nM
GSPT1 = target: T1, GSPT1 (Homo sapiens, UniProt P15170+Q96SW2); assay: Western blot degradation of GSPT1 in hPBMCs (24 h)
T1 construct: The supernatant was aspirated as the extracted total cell protein; endogenous in cells; host or cells: human peripheral blood mononuclear cells (hPBMCs)
Summary of the method: (§1)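 Degradation in primary human PBMCs after 24 h compound exposure at 50 and 500 nM. Western blot band intensities, normalised to an internal control protein, expressed as % protein remaining relative to DMSO.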

WEE1 = target: T2, WEE1 (Homo sapiens, UniProt P30291+Q96SW2); assay: Western blot degradation of WEE1 in hPBMCs (24 h)
T2 construct: The supernatant was aspirated as the extracted total cell protein; endogenous in cells; host or cells: human peripheral blood mononuclear cells (hPBMCs)
T2 sequence (P30291 whole entry): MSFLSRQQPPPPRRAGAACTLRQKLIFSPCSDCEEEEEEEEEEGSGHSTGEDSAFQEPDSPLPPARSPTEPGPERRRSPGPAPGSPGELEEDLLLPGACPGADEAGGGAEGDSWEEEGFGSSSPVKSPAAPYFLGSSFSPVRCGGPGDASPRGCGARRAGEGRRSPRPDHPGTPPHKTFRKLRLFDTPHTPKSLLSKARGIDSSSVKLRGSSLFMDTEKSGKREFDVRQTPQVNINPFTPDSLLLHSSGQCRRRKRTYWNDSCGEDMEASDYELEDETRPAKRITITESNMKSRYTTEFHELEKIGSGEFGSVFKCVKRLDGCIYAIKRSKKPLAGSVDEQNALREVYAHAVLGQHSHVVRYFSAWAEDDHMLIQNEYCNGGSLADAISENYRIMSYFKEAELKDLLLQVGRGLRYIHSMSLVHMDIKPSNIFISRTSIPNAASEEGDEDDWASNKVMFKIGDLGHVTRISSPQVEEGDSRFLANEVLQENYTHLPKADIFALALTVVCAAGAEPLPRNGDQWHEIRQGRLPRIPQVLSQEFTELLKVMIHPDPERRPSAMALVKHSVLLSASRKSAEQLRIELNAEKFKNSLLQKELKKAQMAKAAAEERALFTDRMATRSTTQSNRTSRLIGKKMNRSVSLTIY
T2 sequence (Q96SW2 whole entry): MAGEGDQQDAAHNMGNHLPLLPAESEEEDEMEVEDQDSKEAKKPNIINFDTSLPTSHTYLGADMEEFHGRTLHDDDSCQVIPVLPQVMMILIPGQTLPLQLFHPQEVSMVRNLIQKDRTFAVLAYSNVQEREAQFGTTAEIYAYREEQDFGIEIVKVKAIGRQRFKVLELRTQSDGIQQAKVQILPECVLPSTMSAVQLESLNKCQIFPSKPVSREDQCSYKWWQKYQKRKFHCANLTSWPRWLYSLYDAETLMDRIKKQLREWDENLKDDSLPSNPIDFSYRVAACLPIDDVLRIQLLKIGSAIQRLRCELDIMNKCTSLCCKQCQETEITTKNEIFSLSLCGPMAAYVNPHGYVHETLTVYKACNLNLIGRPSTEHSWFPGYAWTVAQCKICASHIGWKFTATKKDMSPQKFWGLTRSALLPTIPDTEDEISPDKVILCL
T2 sequence (Q16531 whole entry partner): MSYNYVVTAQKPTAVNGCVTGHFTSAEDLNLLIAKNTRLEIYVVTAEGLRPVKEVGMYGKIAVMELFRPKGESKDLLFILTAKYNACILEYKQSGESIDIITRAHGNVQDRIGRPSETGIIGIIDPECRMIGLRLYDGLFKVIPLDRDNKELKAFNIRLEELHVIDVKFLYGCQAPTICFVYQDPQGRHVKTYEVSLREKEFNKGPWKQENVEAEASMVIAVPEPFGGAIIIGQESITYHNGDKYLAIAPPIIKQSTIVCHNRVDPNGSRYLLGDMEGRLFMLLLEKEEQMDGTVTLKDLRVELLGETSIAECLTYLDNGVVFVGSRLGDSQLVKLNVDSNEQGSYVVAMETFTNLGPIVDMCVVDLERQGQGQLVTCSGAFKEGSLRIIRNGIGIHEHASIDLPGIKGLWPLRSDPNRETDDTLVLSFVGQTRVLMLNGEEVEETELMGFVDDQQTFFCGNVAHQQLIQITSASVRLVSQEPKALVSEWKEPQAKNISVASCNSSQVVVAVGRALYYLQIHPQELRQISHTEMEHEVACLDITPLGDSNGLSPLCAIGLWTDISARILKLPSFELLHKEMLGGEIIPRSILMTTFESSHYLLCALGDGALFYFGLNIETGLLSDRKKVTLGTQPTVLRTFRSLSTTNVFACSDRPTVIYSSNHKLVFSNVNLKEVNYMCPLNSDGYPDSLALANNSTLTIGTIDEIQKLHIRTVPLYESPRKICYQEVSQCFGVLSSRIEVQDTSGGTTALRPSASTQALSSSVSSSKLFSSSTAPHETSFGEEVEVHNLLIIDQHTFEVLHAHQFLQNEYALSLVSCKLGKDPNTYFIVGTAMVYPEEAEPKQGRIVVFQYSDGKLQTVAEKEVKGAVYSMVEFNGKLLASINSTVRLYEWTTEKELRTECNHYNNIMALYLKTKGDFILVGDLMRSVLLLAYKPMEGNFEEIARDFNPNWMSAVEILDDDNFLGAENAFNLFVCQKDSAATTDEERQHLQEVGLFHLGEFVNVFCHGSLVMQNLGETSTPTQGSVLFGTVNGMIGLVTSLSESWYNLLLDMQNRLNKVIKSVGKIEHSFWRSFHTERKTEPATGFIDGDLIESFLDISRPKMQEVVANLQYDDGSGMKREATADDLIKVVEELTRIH
Summary of the method: as §1

IKZF1 = target: T3, IKZF1 (Homo sapiens, UniProt Q13422+Q96SW2); assay: Western blot degradation of IKZF1 in hPBMCs (24 h)
T3 construct: The supernatant was aspirated as the extracted total cell protein; endogenous in cells; host or cells: human peripheral blood mononuclear cells (hPBMCs)
T3 sequence (Q13422 whole entry): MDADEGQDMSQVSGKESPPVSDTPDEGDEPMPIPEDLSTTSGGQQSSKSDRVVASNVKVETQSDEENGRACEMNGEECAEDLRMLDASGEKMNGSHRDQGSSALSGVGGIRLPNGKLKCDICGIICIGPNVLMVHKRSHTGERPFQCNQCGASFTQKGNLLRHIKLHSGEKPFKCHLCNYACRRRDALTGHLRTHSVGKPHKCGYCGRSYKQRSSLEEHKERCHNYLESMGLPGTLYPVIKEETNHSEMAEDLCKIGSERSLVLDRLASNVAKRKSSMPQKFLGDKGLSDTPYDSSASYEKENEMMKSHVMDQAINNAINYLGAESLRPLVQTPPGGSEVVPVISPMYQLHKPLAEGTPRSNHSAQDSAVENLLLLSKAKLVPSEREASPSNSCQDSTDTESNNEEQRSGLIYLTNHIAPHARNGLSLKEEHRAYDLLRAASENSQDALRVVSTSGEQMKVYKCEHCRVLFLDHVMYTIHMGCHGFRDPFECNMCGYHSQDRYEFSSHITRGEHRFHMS
T3 sequence (Q96SW2 whole entry): as the sequence (Q96SW2 whole entry) above
T3 sequence (Q16531 whole entry partner): as the sequence (Q16531 whole entry partner) above
Summary of the method: as §1

IKZF2 = target: T4, IKZF2 (Homo sapiens, UniProt Q96SW2+Q9UKS7); assay: Western blot degradation of IKZF2 in hPBMCs (24 h)
T4 construct: The supernatant was aspirated as the extracted total cell protein; endogenous in cells; host or cells: human peripheral blood mononuclear cells (hPBMCs)
T4 sequence (Q9UKS7 whole entry): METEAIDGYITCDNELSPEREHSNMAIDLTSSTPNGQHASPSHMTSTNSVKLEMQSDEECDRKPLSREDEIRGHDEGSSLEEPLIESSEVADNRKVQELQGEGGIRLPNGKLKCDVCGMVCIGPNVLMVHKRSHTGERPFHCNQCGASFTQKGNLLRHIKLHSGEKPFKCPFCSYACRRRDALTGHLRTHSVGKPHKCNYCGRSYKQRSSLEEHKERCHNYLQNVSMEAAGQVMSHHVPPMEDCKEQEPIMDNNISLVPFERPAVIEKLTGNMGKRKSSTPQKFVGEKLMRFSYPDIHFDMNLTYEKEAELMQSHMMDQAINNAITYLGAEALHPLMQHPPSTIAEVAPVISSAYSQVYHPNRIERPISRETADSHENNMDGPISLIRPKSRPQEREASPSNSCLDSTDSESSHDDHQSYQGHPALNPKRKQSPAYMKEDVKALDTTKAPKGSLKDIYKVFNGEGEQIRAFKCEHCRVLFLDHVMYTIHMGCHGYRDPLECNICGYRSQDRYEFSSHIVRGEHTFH
T4 sequence (Q96SW2 whole entry): as the sequence (Q96SW2 whole entry) above
T4 sequence (Q16531 whole entry partner): as the sequence (Q16531 whole entry partner) above
Summary of the method: as §1

CK1α = target: T5, CK1α (Homo sapiens, UniProt P48729+Q96SW2); assay: Western blot degradation of CK1α in hPBMCs (24 h)
T5 construct: The supernatant was aspirated as the extracted total cell protein; endogenous in cells; host or cells: human peripheral blood mononuclear cells (hPBMCs)
T5 sequence (P48729 whole entry): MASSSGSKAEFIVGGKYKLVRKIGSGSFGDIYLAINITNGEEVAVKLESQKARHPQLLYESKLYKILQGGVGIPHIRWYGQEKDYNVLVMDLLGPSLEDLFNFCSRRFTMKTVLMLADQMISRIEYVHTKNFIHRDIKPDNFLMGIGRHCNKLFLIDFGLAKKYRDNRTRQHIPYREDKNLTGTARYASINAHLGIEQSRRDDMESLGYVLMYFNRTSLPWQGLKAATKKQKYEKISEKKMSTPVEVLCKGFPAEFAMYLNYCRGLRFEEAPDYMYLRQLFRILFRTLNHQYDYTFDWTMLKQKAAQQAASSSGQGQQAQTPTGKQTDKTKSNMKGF
T5 sequence (Q96SW2 whole entry): as the sequence (Q96SW2 whole entry) above
T5 sequence (Q16531 whole entry partner): as the sequence (Q16531 whole entry partner) above
Summary of the method: as §1

IKZF3 = target: T6, IKZF3 (Homo sapiens, UniProt Q96SW2+Q9UKT9); assay: Western blot degradation of IKZF3 in hPBMCs (24 h)
T6 construct: The supernatant was aspirated as the extracted total cell protein; endogenous in cells; host or cells: human peripheral blood mononuclear cells (hPBMCs)
T6 sequence (Q9UKT9 whole entry): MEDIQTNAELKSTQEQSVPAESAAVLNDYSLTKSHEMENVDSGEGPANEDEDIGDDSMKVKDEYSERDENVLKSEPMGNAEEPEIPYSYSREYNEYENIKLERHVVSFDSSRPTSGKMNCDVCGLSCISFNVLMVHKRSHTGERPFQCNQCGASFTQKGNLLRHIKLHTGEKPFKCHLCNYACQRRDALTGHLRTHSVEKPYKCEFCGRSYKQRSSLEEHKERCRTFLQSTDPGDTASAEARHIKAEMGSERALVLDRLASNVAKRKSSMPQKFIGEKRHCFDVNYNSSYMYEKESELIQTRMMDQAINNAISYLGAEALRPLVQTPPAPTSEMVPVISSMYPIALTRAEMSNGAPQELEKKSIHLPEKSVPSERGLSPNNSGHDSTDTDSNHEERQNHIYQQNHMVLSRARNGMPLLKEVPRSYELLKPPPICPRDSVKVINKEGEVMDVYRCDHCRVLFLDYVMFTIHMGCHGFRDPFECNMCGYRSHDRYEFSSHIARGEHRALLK
T6 sequence (Q96SW2 whole entry): as the sequence (Q96SW2 whole entry) above
T6 sequence (Q16531 whole entry partner): as the sequence (Q16531 whole entry partner) above
Summary of the method: as §1

| SMILES | GSPT1 substrate protein remaining % (GSPT1) | WEE1 substrate protein remaining % (WEE1) | IKZF1 substrate protein remaining % (IKZF1) | IKZF2 substrate protein remaining % (IKZF2) | CK1α substrate protein remaining % (CK1α) | IKZF3 substrate protein remaining % (IKZF3) |
| --- | --- | --- | --- | --- | --- | --- |
| Cc1cc2c(C3CCN(Cc4ccc5c(c4)C(=O)N(N4CCC(=O)NC4=O)C5=O)CC3)ncnc2s1 [GT-08107, 2-(2,4-dioxotetrahydropyrimidin-1(2H)-yl)-5-((4-(6-methylthieno[2,3-d]pyrimidin-4-yl)piperidin-1-yl)methyl)isoindoline-1,3-dione] | A (0% ≤ substrate protein remaining % ≤80%) | A (0% ≤ substrate protein remaining % ≤80%) | A (0% ≤ substrate protein remaining % ≤80%) | A (0% ≤ substrate protein remaining % ≤80%) | A (0% ≤ substrate protein remaining % ≤80%) | A (0% ≤ substrate protein remaining % ≤80%) |
| O=C1CCN(N2C(=O)c3ccc(CN4CCC(c5ncnc6sc(-c7ccccc7)cc56)CC4)cc3C2=O)C(=O)N1 [GT-08108, 2-(2,4-dioxotetrahydropyrimidin-1(2H)-yl)-5-((4-(6-phenylthieno[2,3-d]pyrimidin-4-yl)piperidin-1-yl)methyl)isoindoline-1,3-dione] | A (0% ≤ substrate protein remaining % ≤80%) | A (0% ≤ substrate protein remaining % ≤80%) | A (0% ≤ substrate protein remaining % ≤80%) | A (0% ≤ substrate protein remaining % ≤80%) | A (0% ≤ substrate protein remaining % ≤80%) | A (0% ≤ substrate protein remaining % ≤80%) |
| O=C1CCN(N2C(=O)c3ccc(CN4CCC(c5ncnc6scc(-c7ccccc7)c56)CC4)cc3C2=O)C(=O)N1 [GT-08109, 2-(2,4-dioxotetrahydropyrimidin-1(2H)-yl)-5-((4-(5-phenylthieno[2,3-d]pyrimidin-4-yl)piperidin-1-yl)methyl)isoindoline-1,3-dione] | A (0% ≤ substrate protein remaining % ≤80%) | A (0% ≤ substrate protein remaining % ≤80%) | A (0% ≤ substrate protein remaining % ≤80%) | A (0% ≤ substrate protein remaining % ≤80%) | A (0% ≤ substrate protein remaining % ≤80%) | A (0% ≤ substrate protein remaining % ≤80%) |
| Cc1nc(C2CCN(Cc3ccc4c(c3)C(=O)N(N3CCC(=O)NC3=O)C4=O)CC2)c2c(-c3ccccc3)csc2n1 [GT-08110, 2-(2,4-dioxotetrahydropyrimidin-1(2H)-yl)-5-((4-(2-methyl-5-phenylthieno[2,3-d]pyrimidin-4-yl)piperidin-1-yl)methyl)isoindoline-1,3-dione] | A (0% ≤ substrate protein remaining % ≤80%) | A (0% ≤ substrate protein remaining % ≤80%) | A (0% ≤ substrate protein remaining % ≤80%) | A (0% ≤ substrate protein remaining % ≤80%) | A (0% ≤ substrate protein remaining % ≤80%) | A (0% ≤ substrate protein remaining % ≤80%) |
| Cc1nc(C2CCN(Cc3ccc4c(c3)C(=O)N(N3CCC(=O)NC3=O)C4=O)CC2)c2c3c(sc2n1)CCCC3 [GT-08111, 2-(2,4-dioxotetrahydropyrimidin-1(2H)-yl)-5-((4-(2-methyl-5,6,7,8-tetrahydrobenzo[4,5]thieno[2,3-d]pyrimidin-4-yl)piperidin-1-yl)methyl)isoindoline-1,3-dione] | A (0% ≤ substrate protein remaining % ≤80%) | B (80%< substrate protein remaining % ≤100%) | B (80%< substrate protein remaining % ≤100%) | B (80%< substrate protein remaining % ≤100%) | A (0% ≤ substrate protein remaining % ≤80%) | B (80%< substrate protein remaining % ≤100%) |
| O=C1CCN(N2Cc3cc(CN4CCC(c5ncnc6sc7c(c56)CCCC7)CC4)ccc3C2=O)C(=O)N1 [GT-08112, 1-(1-oxo-5-((4-(5,6,7,8-tetrahydrobenzo[4,5]thieno[2,3-d]pyrimidin-4-yl)piperidin-1-yl)methyl)isoindolin-2-yl)dihydropyrimidine-2,4(1H,3H)-dione] | A (0% ≤ substrate protein remaining % ≤80%) | B (80%< substrate protein remaining % ≤100%) | B (80%< substrate protein remaining % ≤100%) | B (80%< substrate protein remaining % ≤100%) | B (80%< substrate protein remaining % ≤100%) | B (80%< substrate protein remaining % ≤100%) |
| O=C1CCN(N2Cc3cc(CN4CCC(c5ncnc6sc7c(c56)CCC7)CC4)ccc3C2=O)C(=O)N1 [GT-08113, 1-(5-((4-(6,7-dihydro-5H-cyclopenta[4,5]thieno[2,3-d]pyrimidin-4-yl)piperidin-1-yl)methyl)-1-oxoisoindolin-2-yl)dihydropyrimidine-2,4(1H,3H)-dione] | A (0% ≤ substrate protein remaining % ≤80%) | B (80%< substrate protein remaining % ≤100%) | B (80%< substrate protein remaining % ≤100%) | B (80%< substrate protein remaining % ≤100%) | A (0% ≤ substrate protein remaining % ≤80%) | B (80%< substrate protein remaining % ≤100%) |
| Cc1nc(C2CCN(Cc3ccc4c(c3)CN(N3CCC(=O)NC3=O)C4=O)CC2)c2c3c(sc2n1)CCC3 [GT-08114, 1-(5-((4-(2-methyl-6,7-dihydro-5H-cyclopenta[4,5]thieno[2,3-d]pyrimidin-4-yl)piperidin-1-yl)methyl)-1-oxoisoindolin-2-yl)dihydropyrimidine-2,4(1H,3H)-dione] | A (0% ≤ substrate protein remaining % ≤80%) | B (80%< substrate protein remaining % ≤100%) | B (80%< substrate protein remaining % ≤100%) | B (80%< substrate protein remaining % ≤100%) | B (80%< substrate protein remaining % ≤100%) | B (80%< substrate protein remaining % ≤100%) |
| O=C1CCN(N2Cc3cc(CN4CCC(c5ncc6ccsc6n5)CC4)ccc3C2=O)C(=O)N1 [GT-08115, 1-(1-oxo-5-((4-(thieno[2,3-d]pyrimidin-2-yl)piperidin-1-yl)methyl)isoindolin-2-yl)dihydropyrimidine-2,4(1H,3H)-dione] | A (0% ≤ substrate protein remaining % ≤80%) | B (80%< substrate protein remaining % ≤100%) | B (80%< substrate protein remaining % ≤100%) | B (80%< substrate protein remaining % ≤100%) | A (0% ≤ substrate protein remaining % ≤80%) | B (80%< substrate protein remaining % ≤100%) |
| O=C1CCN(N2Cc3cc(CN4CC=C(c5ncnc6sccc56)CC4)ccc3C2=O)C(=O)N1 [GT-08116, 1-(1-oxo-5-((4-(thieno[2,3-d]pyrimidin-4-yl)-3,6-dihydropyridin-1(2H)-yl)methyl)isoindolin-2-yl)dihydropyrimidine-2,4(1H,3H)-dione] | A (0% ≤ substrate protein remaining % ≤80%) | A (0% ≤ substrate protein remaining % ≤80%) | A (0% ≤ substrate protein remaining % ≤80%) | B (80%< substrate protein remaining % ≤100%) | A (0% ≤ substrate protein remaining % ≤80%) | A (0% ≤ substrate protein remaining % ≤80%) |
| Cc1csc2ncnc(C3=CCN(Cc4ccc5c(c4)CN(N4CCC(=O)NC4=O)C5=O)CC3)c12 [GT-08117, 1-(5-((4-(5-methylthieno[2,3-d]pyrimidin-4-yl)-3,6-dihydropyridin-1(2H)-yl)methyl)-1-oxoisoindolin-2-yl)dihydropyrimidine-2,4(1H,3H)-dione] | A (0% ≤ substrate protein remaining % ≤80%) | B (80%< substrate protein remaining % ≤100%) | B (80%< substrate protein remaining % ≤100%) | B (80%< substrate protein remaining % ≤100%) | A (0% ≤ substrate protein remaining % ≤80%) | A (0% ≤ substrate protein remaining % ≤80%) |
| O=C1CCN(N2Cc3cc(CN4CCC(c5cccc(F)c5F)CC4)ccc3C2=O)C(=O)N1 [GT-08194, 1-(5-((4-(2,3-difluorophenyl)piperidin-1-yl)methyl)-1-oxoisoindolin-2-yl)dihydropyrimidine-2,4(1H,3H)-dione] | A (0% ≤ substrate protein remaining % ≤80%) | B (80%< substrate protein remaining % ≤100%) | A (0% ≤ substrate protein remaining % ≤80%) | B (80%< substrate protein remaining % ≤100%) | B (80%< substrate protein remaining % ≤100%) | B (80%< substrate protein remaining % ≤100%) |
